Experimental data taken from the CheMixHub ionic liquid set.
± gives the uncertainty stated by the source.

Assay: xn = mol fraction of the nth substance listed
Settings: 100 kPa
[1] = 298.15 K, x1 = 8.993e-05, x2 = 0.001802
[2] = 298.15 K, x1 = 8.996e-05, x2 = 0.001442
[3] = 298.15 K, x1 = 8.999e-05, x2 = 0.001082
[4] = 298.15 K, x1 = 9.006e-05, x2 = 0.0003609
[5] = 298.15 K, x1 = 9.009e-05, x2 = 0
[6] = 303.15 K, x1 = 8.993e-05, x2 = 0.001802
[7] = 303.15 K, x1 = 8.996e-05, x2 = 0.001442
[8] = 303.15 K, x1 = 8.999e-05, x2 = 0.001082
[9] = 303.15 K, x1 = 9.006e-05, x2 = 0.0003609
[10] = 303.15 K, x1 = 9.009e-05, x2 = 0
[11] = 308.15 K, x1 = 8.993e-05, x2 = 0.001802
[12] = 308.15 K, x1 = 8.996e-05, x2 = 0.001442
[13] = 308.15 K, x1 = 8.999e-05, x2 = 0.001082
[14] = 308.15 K, x1 = 9.006e-05, x2 = 0.0003609
[15] = 308.15 K, x1 = 9.009e-05, x2 = 0
[16] = 313.15 K, x1 = 8.993e-05, x2 = 0.001802
[17] = 313.15 K, x1 = 8.996e-05, x2 = 0.001442
[18] = 313.15 K, x1 = 8.999e-05, x2 = 0.001082
[19] = 313.15 K, x1 = 9.006e-05, x2 = 0.0003609
[20] = 313.15 K, x1 = 9.009e-05, x2 = 0

| SMILES | electrical conductivity [1] [S/m] | electrical conductivity [2] [S/m] | electrical conductivity [3] [S/m] | electrical conductivity [4] [S/m] | electrical conductivity [5] [S/m] | electrical conductivity [6] [S/m] | electrical conductivity [7] [S/m] | electrical conductivity [8] [S/m] | electrical conductivity [9] [S/m] | electrical conductivity [10] [S/m] | electrical conductivity [11] [S/m] | electrical conductivity [12] [S/m] | electrical conductivity [13] [S/m] | electrical conductivity [14] [S/m] | electrical conductivity [15] [S/m] | electrical conductivity [16] [S/m] | electrical conductivity [17] [S/m] | electrical conductivity [18] [S/m] | electrical conductivity [19] [S/m] | electrical conductivity [20] [S/m] | other results |
| --- | --- | --- | --- | --- | --- | --- | --- | --- | --- | --- | --- | --- | --- | --- | --- | --- | --- | --- | --- | --- | --- |
| CCCCCCCCCCCCCCCC[n+]1ccccc1.[Br-] + NCC(=O)NCC(=O)O + O | 0.023 ± 0.001 | 0.022 ± 0.001 | 0.021 ± 0.001 | 0.019 ± 0.001 | 0.021 ± 0.001 | 0.024 ± 0.001 | 0.023 ± 0.001 | 0.022 ± 0.001 | 0.02 ± 0.001 | 0.021 ± 0.001 | 0.025 ± 0.001 | 0.024 ± 0.001 | 0.023 ± 0.001 | 0.021 ± 0.001 | 0.022 ± 0.001 | 0.026 ± 0.001 | 0.025 ± 0.001 | 0.024 ± 0.001 | 0.022 ± 0.001 | 0.024 ± 0.001 | electrical conductivity (298.15 K, x1 = 9.003e-05, x2 = 0.0007216): 0.02 ± 0.001 S/m; electrical conductivity (303.15 K, x1 = 9.003e-05, x2 = 0.0007216): 0.021 ± 0.001 S/m; electrical conductivity (308.15 K, x1 = 9.003e-05, x2 = 0.0007216): 0.022 ± 0.001 S/m; electrical conductivity (313.15 K, x1 = 9.003e-05, x2 = 0.0007216): 0.023 ± 0.001 S/m |
| CCCCCCCCCCCCCCCC[n+]1ccccc1.[Cl-] + NCC(=O)NCC(=O)O + O | 0.024 ± 0.001 | 0.023 ± 0.001 | 0.022 ± 0.001 | 0.02 ± 0.001 | 0.02 ± 0.001 | 0.025 ± 0.001 | 0.024 ± 0.001 | 0.023 ± 0.001 | 0.021 ± 0.001 | 0.021 ± 0.001 | 0.027 ± 0.001 | 0.026 ± 0.001 | 0.024 ± 0.001 | 0.022 ± 0.001 | 0.021 ± 0.001 | 0.028 ± 0.001 | 0.027 ± 0.001 | 0.025 ± 0.001 | 0.023 ± 0.001 | 0.023 ± 0.001 | electrical conductivity (298.15 K, x1 = 9.003e-05, x2 = 0.0007214): 0.021 ± 0.001 S/m; electrical conductivity (303.15 K, x1 = 9.003e-05, x2 = 0.0007214): 0.022 ± 0.001 S/m; electrical conductivity (308.15 K, x1 = 9.003e-05, x2 = 0.0007214): 0.023 ± 0.001 S/m; electrical conductivity (313.15 K, x1 = 9.003e-05, x2 = 0.0007214): 0.024 ± 0.001 S/m |
